Assay: speed of dissolution in water (10 mg crystal in 50 mL ion exchanged water, 60 rpm, concentration by liquid chromatography)
Format: physicochemical
Conditions: for concentration (elution %): 10 mg in 50 mL ion exchanged water, 60 revolutions per minute
Method: The anhydrous form of a B type crystal of 7-[2-(2-aminothiazol-4-yl)-2-hydroxyiminoacetamide]-3-vinyl-3-cephem-4-carboxylic acid (syn isomer) obtained in Example 2, and the A type crystal of a compound (I) obtained by deposition of a crystal from a sodium bicarbonate aqueous solution having a pH value of 3.6 and a temperature of 22° C. in Example 1 were used, and the speed of dissolution thereof in water was measured.
Namely, each 10 mg of the above-mentioned A type crystal or B type crystal was put into 50 mL of ion exchanged water and dissolved at a revolution per minute of 60, and the concentrations of each crystal in the solution with the lapse of time were measured by liquid chromatography.

| Structure (SMILES) | concentration (elution %) (lapse time 110 min) | concentration (elution %) (lapse time 340 min) | concentration (elution %) (lapse time 700 min) | solubility in water compared with conventional A type crystal (conclusion from Table 5) |
| --- | --- | --- | --- | --- |
| C=CC1=C(C(=O)O)N2C(=O)C(NC(=O)/C(=N\O)c3csc(N)n3)C2SC1 (stereo not drawn) [A type crystal, 7-[2-(2-aminothiazol-4-yl)-2-hydroxyiminoacetamide]-3-vinyl-3-cephem-4-carboxylic acid (syn isomer), reference compound] | 32.7 elution % | 39.7 elution % | 63.7 elution % |  |
| C=CC1=C(C(=O)O)N2C(=O)C(NC(=O)/C(=N\O)c3csc(N)n3)C2SC1 (stereo not drawn) [B type crystal, 7-[2-(2-aminothiazol-4-yl)-2-hydroxyiminoacetamide]-3-vinyl-3-cephem-4-carboxylic acid (syn isomer)] | 72.8 elution % | 78.4 elution % | 91.1 elution % | more excellent solubility in water as compared with a conventional A type crystal |
